Data published in patent publication US12459951B2, “Compounds that interact with RAS superfamily proteins for treatment of cancers, inflammatory diseases, rasopathies, and fibrotic disease” (SHY Therapeutics, LLC, priority 2022, dated 2025).

How the values were obtained:
Akt phosphorylation = test: Akt Phosphorylation Assay (western blot), Panc-1; assay type: cell-based, human; conditions: at 10 μM, * = activation
Summary of the method: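 Phospho-Akt (Ser473) was measured by western blot in lysates of KRas G12D Panc-1 cells exposed to test compound for 6 h at 37 °C, either at 10 μM final with 0.3% DMSO or as serial dilutions for IC50. One format used overnight 0.5% FBS starvation followed by a 15 min pulse of 1.5 ng/ml EGF. The other used cells in 10% FBS with no stimulation.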

KRas G12D mutant = test: Ras GTP Binding Domain Inhibition Assay (Ras Superfamily Assay); conditions: 20 μM compound; for KRas G12D mutant + SOS: % inh.: with SOS; for KRas G12D mutant: % inh.: without SOS
Summary of the method: (§1)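 Ni-plate capture of His-tagged protein (10-30 μg/mL, o/n 4° C); cpd 20 μM or dilution series, 1% DMSO, 3 h RT ± Sos 556-1049 last h; 100 nM Cy-labelled GTP 45 min RT; 3× wash; fluorescence read.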

KRas wild type = test: as above; conditions: 20 μM compound; for KRas wild type + SOS: % inh.: with SOS; for KRas wild type: % inh.: without SOS
Summary of the method: as §1

Rac-1 = biological target: T1, Rac-1 (Homo sapiens, UniProt P63000); test: as above; conditions: read-out: Rac-1: % inh.
T1 construct: made in house
Summary of the method: as §1

IL6 = test: IL-6 Quantification Assay (ELISA), LPS-stimulated RAW 264.7; assay type: cell-based; parameters: inhibition: dose or concentration left out as unconfirmed; conditions: Mus musculus, RAW264.7; read-out: IL-6: % inh.
TNF-alpha = TNF-alpha Quantification Assay (ELISA), LPS-stimulated RAW 264.7; assay type: cell-based; conditions: Mus musculus, RAW264.7; at 10 μM; read-out: TNFα: % inh.

Compound	% inh of Akt phosphorylation in Panc-1 (Akt phosphorylation)	KRas G12D mutant + SOS: % inh. (KRas G12D mutant)	KRas G12D mutant: % inh. (KRas G12D mutant)	KRas wild type + SOS: % inh. (KRas wild type)	KRas wild type: % inh. (KRas wild type)	inhibition at 20 µM (Rac-1)	inhibition (IL6)	inhibition at 10 µM (TNF-alpha)
CO[C@H]1CC[C@@H](Nc2nc(-c3nccn3C)nn3cc(-c4ccn(C(C)C)n4)c(C)c23)C1 (racemic) [Compound 1, rac 6-(1-Isopropyl-1H-pyrazol-3-yl)-N-((1R,3S)-3-methoxycyclopentyl)-5-methyl-2-(1-methyl-1H-imidazol-2-yl)pyrrolo[2,1-f][1,2,4]triazin-4-amine]	C* (46-84% activation)	0 (0 = 0% inhibition)	A (A = 1-25% inhibition)	A (A = 1-25% inhibition)	0 (0 = 0% inhibition)	1 to 25%	75 to 100%	1 to 24%
CCc1nc(Nc2nc(-c3nccn3C)nn3cc(-c4ccn(C(C)C)n4)c(C)c23)nn1C [Compound 76, N-(5-Ethyl-1-methyl-1H-1,2,4-triazol-3-yl)-6-(1-isopropyl-1H-pyrazol-3-yl)-5-methyl-2-(1-methyl-1H-imidazol-2-yl)pyrrolo[2,1-f][1,2,4]triazin-4-amine]	D* (85-100% activation)	0 (0 = 0% inhibition)	C (C = 50-75% inhibition)	0 (0 = 0% inhibition)	B (B = 26-49% inhibition)	50 to 75%	25 to 49%	25 to 49%
COc1cccnc1Nc1nc(-c2nccn2C)nn2cc(-c3ccn(C(C)C)n3)c(C)c12 [Compound 89, 6-(1-Isopropyl-1H-pyrazol-3-yl)-N-(3-methoxypyridin-2-yl)-5-methyl-2-(1-methyl-1H-imidazol-2-yl)pyrrolo[2,1-f][1,2,4]triazin-4-amine]	D* (85-100% activation)	D (D = 76-100% inhibition)	D (D = 76-100% inhibition)	D (D = 76-100% inhibition)	D (D = 76-100% inhibition)	76 to 100%	75 to 100%	25 to 49%
Cn1ccnc1-c1nc(O)c2c(-c3ccccc3)ccn2n1 [Compound 39, 2-(1-Methyl-1H-imidazol-2-yl)-5-phenylpyrrolo[2,1-f][1,2,4]triazin-4-ol]	0 (0% inhibition)	A (A = 1-25% inhibition)	A (A = 1-25% inhibition)	A (A = 1-25% inhibition)	A (A = 1-25% inhibition)	0%	0%	0%
CC(C)n1ccc(-c2cn3nc(-c4nccn4C)nc(O)c3c2-c2ccccc2)n1 [Compound 17, 6-(1-Isopropyl-1H-pyrazol-3-yl)-2-(1-methyl-1H-imidazol-2-yl)-5-phenylpyrrolo[2,1-f][1,2,4]triazin-4-ol]	D (85-100% inhibition)	C (C = 50-75% inhibition)	C (C = 50-75% inhibition)	C (C = 50-75% inhibition)	C (C = 50-75% inhibition)	50 to 75%	50 to 74%	25 to 49%
COC1CCCN(c2nc(-c3nccn3C)nn3cc(-c4ccn(C(C)C)n4)c(C)c23)C1 (racemic) [Compound 4, rac 6-(1-Isopropyl-1H-pyrazol-3-yl)-5-methyl-2-(1-methyl-1H-imidazol-2-yl)-4-(3-(oxo-γ6-methyl)piperidin-1-yl)pyrrolo[2,1-f][1,2,4]triazine]	0 (0% inhibition)	0 (0 = 0% inhibition)	A (A = 1-25% inhibition)	A (A = 1-25% inhibition)	A (A = 1-25% inhibition)	1 to 25%	75 to 100%	75 to 100%
COCC1CCN(c2nc(-c3nccn3C)nn3cc(-c4ccn(C(C)C)n4)c(C)c23)C1 (racemic) [Compound 2, rac 6-(1-Isopropyl-1H-pyrazol-3-yl)-4-(3-(methoxymethyl)pyrrolidin-1-yl)-5-methyl-2-(1-methyl-1H-imidazol-2-yl)pyrrolo[2,1-f][1,2,4]triazine]	C* (46-84% activation)	0 (0 = 0% inhibition)	0 (0 = 0% inhibition)	0 (0 = 0% inhibition)	0 (0 = 0% inhibition)	0%	1 to 24%	25 to 49%
Cc1c(-c2ccn(C(C)C)n2)cn2nc(-c3nccn3C)nc(Nc3noc(C4CC4)n3)c12 [Compound 75, 5-Cyclopropyl-N-(6-(1-isopropyl-1H-pyrazol-3-yl)-5-methyl-2-(1-methyl-1H-imidazol-2-yl)pyrrolo[2,1-f][1,2,4]triazin-4-yl)-1,2,4-oxadiazol-3-amine]	A* (1-25% activation)	A (A = 1-25% inhibition)	B (B = 26-49% inhibition)	A (A = 1-25% inhibition)	A (A = 1-25% inhibition)	26 to 49%	1 to 24%	1 to 24%
COc1cnc(Nc2nc(-c3nccn3C)nn3cc(-c4ccn(C(C)C)n4)c(C)c23)cn1 [Compound 83, 6-(1-Isopropyl-1H-pyrazol-3-yl)-N-(5-methoxypyrazin-2-yl)-5-methyl-2-(1-methyl-1H-imidazol-2-yl)pyrrolo[2,1-f][1,2,4]triazin-4-amine]	D* (85-100% activation)	D (D = 76-100% inhibition)	D (D = 76-100% inhibition)	C (C = 50-75% inhibition)	D (D = 76-100% inhibition)	76 to 100%	25 to 49%	1 to 24%
COc1nccc(Nc2nc(-c3nccn3C)nn3cc(-c4ccn(C(C)C)n4)c(C)c23)n1 [Compound 86, 6-(1-Isopropyl-1H-pyrazol-3-yl)-N-(2-methoxypyrimidin-4-yl)-5-methyl-2-(1-methyl-1H-imidazol-2-yl)pyrrolo[2,1-f][1,2,4]triazin-4-amine]	D* (85-100% activation)	C (C = 50-75% inhibition)	A (A = 1-25% inhibition)	0 (0 = 0% inhibition)	B (B = 26-49% inhibition)	50 to 75%	75 to 100%	1 to 24%
COC[C@@H]1CC[C@@H]1CNc1nc(-c2nccn2C)nn2cc(-c3ccn(C(C)C)n3)c(C)c12 (racemic) [Compound 3, rac 6-(1-Isopropyl-1H-pyrazol-3-yl)-N-(((1S,2R)-2-(methoxymethyl)cyclobutyl)methyl)-5-methyl-2-(1-methyl-1H-imidazol-2-yl)pyrrolo[2,1-f][1,2,4]triazin-4-amine]	B (26-49% inhibition)	0 (0 = 0% inhibition)	0 (0 = 0% inhibition)	0 (0 = 0% inhibition)	0 (0 = 0% inhibition)	1 to 25%	50 to 74%	25 to 49%
COc1ncncc1Nc1nc(-c2nccn2C)nn2cc(-c3ccn(C(C)C)n3)c(C)c12 [Compound 88, 6-(1-Isopropyl-1H-pyrazol-3-yl)-N-(4-methoxypyrimidin-5-yl)-5-methyl-2-(1-methyl-1H-imidazol-2-yl)pyrrolo[2,1-f][1,2,4]triazin-4-amine]	D* (85-100% activation)	A (A = 1-25% inhibition)	A (A = 1-25% inhibition)	0 (0 = 0% inhibition)	0 (0 = 0% inhibition)	1 to 25%	1 to 24%	1 to 24%
COCCNc1nc(-c2nccn2C)nn2cc(-c3ccn(C(C)C)n3)c(C)c12 [Compound 5, 6-(1-Isopropyl-1H-pyrazol-3-yl)-N-(2-methoxyethyl)-5-methyl-2-(1-methyl-1H-imidazol-2-yl)pyrrolo[2,1-f][1,2,4]triazin-4-amine]	0 (0% inhibition)	–	–	–	–	26 to 49%	0%	0%
Cc1c(-c2ccn(C(C)C)n2)cn2nc(-c3nccn3C)nc(Nc3ccn(C4CC4)n3)c12 [Compound 84, N-(1-Cyclopropyl-1H-pyrazol-3-yl)-6-(1-isopropyl-1H-pyrazol-3-yl)-5-methyl-2-(1-methyl-1H-imidazol-2-yl)pyrrolo[2,1-f][1,2,4]triazin-4-amine]	D* (85-100% activation)	–	–	–	–	76 to 100%	25 to 49%	0%
